Experimental data reported in ChEMBL document CHEMBL5291721, “A preclinical secondary pharmacology resource illuminates target-adverse drug reaction associations of marketed drugs” (Nat Commun, 2023).

What was measured:
Progesterone receptor = molecular target: T1, Progesterone receptor (Homo sapiens, UniProt P06401)
T1 sequence (P06401 whole entry): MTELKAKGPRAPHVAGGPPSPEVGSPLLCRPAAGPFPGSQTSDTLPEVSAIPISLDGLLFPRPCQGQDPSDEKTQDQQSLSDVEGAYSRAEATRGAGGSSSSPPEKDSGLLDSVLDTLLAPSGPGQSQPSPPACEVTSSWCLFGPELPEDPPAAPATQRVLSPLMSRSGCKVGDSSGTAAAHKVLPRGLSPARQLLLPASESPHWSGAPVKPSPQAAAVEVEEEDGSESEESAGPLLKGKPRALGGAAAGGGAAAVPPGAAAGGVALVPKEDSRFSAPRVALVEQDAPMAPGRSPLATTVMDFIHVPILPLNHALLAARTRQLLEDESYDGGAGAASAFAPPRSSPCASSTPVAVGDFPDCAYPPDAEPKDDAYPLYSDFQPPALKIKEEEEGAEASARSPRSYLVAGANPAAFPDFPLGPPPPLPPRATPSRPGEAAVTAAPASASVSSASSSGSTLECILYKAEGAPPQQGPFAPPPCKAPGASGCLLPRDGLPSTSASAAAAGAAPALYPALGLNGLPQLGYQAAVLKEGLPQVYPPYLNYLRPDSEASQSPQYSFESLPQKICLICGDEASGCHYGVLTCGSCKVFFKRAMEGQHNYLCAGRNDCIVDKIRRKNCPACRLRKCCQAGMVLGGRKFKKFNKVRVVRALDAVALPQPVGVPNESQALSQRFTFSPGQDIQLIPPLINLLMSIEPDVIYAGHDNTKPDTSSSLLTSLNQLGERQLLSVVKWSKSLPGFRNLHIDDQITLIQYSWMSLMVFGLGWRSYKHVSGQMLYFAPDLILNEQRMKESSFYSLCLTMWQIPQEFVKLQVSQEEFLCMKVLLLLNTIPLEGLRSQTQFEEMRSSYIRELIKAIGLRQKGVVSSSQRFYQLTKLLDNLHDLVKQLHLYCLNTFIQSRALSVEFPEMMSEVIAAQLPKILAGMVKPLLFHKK

[1] = molecular target: Gamma-aminobutyric acid receptor subunit alpha-1/alpha-2/beta-2/gamma-2 (Homo sapiens, UniProt P14867+P18507+P47869+P47870); assay type: protein-complex assay
Chain of Gamma-aminobutyric acid receptor subunit alpha-1/alpha-2/beta-2/gamma-2 (P14867 whole entry): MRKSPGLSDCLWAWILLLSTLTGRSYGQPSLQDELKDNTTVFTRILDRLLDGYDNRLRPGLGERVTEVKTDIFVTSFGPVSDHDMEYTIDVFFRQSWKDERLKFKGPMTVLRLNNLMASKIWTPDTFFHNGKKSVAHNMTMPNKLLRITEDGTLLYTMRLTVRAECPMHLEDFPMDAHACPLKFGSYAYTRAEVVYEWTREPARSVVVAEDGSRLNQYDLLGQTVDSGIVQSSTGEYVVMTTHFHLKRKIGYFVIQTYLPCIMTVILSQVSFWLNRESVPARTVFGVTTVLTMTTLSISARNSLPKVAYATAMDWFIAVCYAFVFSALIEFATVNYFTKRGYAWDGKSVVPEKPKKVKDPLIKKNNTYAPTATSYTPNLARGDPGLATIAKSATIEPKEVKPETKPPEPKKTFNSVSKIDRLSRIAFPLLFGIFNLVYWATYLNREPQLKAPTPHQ
Chain of Gamma-aminobutyric acid receptor subunit alpha-1/alpha-2/beta-2/gamma-2 (P47870 whole entry): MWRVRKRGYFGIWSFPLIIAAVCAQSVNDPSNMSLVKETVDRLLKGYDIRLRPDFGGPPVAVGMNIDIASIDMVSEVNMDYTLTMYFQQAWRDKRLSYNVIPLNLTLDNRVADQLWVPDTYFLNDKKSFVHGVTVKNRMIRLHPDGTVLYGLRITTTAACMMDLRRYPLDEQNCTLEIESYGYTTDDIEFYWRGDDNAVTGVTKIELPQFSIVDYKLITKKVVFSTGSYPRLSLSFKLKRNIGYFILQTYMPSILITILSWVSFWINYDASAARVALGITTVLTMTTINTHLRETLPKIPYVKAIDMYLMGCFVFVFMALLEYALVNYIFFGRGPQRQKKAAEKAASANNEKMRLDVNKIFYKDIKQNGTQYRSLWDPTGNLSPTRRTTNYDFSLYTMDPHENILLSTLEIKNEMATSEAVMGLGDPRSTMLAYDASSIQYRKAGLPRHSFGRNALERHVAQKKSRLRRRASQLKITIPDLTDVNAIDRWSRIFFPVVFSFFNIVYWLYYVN
Chain of Gamma-aminobutyric acid receptor subunit alpha-1/alpha-2/beta-2/gamma-2 (P18507 whole entry): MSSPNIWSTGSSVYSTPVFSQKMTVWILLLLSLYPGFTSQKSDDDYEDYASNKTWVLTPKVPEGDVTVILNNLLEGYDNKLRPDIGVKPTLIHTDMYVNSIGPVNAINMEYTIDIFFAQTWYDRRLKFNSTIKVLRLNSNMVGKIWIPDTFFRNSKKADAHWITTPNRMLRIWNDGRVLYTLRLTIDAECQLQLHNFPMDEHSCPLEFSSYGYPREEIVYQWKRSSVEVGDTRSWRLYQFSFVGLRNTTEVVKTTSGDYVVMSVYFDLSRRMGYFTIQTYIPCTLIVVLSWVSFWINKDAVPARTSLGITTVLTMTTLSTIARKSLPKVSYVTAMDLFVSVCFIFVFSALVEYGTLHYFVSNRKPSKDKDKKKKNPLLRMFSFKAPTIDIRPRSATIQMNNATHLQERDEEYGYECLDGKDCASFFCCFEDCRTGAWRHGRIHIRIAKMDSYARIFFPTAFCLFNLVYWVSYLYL
Chain of Gamma-aminobutyric acid receptor subunit alpha-1/alpha-2/beta-2/gamma-2 (P47869 whole entry): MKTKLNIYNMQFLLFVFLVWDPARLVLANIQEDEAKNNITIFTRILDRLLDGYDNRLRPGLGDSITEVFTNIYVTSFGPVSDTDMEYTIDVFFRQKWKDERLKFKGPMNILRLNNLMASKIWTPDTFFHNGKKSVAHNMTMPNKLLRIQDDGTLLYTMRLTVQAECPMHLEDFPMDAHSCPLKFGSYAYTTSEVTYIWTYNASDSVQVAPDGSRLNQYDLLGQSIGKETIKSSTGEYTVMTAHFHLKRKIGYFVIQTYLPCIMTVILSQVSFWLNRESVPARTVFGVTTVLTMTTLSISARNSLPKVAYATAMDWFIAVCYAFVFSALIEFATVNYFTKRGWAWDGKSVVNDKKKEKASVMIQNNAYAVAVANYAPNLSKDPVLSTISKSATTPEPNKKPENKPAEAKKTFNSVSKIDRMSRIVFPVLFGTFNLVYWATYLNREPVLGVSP

[2] = molecular target: Sodium channel protein type 5 subunit alpha (Homo sapiens, UniProt Q14524); assay type: functional, cell-based
[3] = molecular target: T2, Peroxisome proliferator-activated receptor gamma (Homo sapiens, UniProt P37231); assay type: functional
T2 sequence (P37231 whole entry): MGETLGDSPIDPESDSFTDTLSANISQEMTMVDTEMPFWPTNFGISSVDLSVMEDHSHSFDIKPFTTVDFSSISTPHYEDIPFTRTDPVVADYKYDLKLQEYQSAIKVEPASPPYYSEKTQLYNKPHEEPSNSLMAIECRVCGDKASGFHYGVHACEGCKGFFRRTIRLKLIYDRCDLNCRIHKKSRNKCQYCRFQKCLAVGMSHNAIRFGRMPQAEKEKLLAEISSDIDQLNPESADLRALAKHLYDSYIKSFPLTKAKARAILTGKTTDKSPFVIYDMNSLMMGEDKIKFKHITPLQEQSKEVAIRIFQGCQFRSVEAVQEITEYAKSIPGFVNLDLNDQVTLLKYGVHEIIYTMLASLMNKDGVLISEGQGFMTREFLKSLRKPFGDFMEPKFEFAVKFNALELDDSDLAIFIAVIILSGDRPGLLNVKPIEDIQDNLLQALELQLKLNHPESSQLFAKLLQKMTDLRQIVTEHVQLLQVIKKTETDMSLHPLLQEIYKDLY

[4] = molecular target: T2, Peroxisome proliferator-activated receptor gamma; assay type: functional; remark: listed apart in the source
[5] = molecular target: Epidermal growth factor receptor (Homo sapiens, UniProt P00533); assay type: functional
Chain of Epidermal growth factor receptor (P00533 whole entry): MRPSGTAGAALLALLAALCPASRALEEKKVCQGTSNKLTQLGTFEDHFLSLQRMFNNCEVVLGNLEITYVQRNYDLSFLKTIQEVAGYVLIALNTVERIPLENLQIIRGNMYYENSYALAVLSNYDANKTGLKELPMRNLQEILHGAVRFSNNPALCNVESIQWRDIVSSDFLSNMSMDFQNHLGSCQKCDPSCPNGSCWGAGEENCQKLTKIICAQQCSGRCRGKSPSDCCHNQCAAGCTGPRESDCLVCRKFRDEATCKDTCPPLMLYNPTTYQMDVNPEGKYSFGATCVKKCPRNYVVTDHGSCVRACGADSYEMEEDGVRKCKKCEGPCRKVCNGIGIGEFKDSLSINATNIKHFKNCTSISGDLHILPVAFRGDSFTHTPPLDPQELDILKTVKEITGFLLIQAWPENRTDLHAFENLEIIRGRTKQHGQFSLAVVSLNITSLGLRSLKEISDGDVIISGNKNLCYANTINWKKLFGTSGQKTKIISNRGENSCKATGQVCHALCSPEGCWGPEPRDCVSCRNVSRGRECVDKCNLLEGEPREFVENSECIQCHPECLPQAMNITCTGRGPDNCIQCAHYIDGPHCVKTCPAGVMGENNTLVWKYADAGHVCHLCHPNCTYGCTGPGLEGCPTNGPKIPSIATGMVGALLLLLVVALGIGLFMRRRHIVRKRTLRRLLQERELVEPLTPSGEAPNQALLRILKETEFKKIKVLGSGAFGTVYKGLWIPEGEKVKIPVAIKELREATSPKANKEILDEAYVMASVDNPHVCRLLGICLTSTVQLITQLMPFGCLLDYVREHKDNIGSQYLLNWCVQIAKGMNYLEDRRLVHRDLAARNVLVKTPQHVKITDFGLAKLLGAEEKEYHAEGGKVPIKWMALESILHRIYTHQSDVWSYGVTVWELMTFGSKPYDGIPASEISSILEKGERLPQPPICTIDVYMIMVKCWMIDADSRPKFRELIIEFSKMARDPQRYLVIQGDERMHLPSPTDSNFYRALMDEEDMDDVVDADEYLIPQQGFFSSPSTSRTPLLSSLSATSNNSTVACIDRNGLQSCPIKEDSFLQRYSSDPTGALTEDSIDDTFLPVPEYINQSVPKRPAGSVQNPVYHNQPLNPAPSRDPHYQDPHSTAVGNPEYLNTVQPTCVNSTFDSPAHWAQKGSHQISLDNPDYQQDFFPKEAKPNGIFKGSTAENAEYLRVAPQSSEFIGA

Androgen receptor = molecular target: T3, Androgen receptor (Homo sapiens, UniProt P10275)
T3 sequence (P10275 whole entry): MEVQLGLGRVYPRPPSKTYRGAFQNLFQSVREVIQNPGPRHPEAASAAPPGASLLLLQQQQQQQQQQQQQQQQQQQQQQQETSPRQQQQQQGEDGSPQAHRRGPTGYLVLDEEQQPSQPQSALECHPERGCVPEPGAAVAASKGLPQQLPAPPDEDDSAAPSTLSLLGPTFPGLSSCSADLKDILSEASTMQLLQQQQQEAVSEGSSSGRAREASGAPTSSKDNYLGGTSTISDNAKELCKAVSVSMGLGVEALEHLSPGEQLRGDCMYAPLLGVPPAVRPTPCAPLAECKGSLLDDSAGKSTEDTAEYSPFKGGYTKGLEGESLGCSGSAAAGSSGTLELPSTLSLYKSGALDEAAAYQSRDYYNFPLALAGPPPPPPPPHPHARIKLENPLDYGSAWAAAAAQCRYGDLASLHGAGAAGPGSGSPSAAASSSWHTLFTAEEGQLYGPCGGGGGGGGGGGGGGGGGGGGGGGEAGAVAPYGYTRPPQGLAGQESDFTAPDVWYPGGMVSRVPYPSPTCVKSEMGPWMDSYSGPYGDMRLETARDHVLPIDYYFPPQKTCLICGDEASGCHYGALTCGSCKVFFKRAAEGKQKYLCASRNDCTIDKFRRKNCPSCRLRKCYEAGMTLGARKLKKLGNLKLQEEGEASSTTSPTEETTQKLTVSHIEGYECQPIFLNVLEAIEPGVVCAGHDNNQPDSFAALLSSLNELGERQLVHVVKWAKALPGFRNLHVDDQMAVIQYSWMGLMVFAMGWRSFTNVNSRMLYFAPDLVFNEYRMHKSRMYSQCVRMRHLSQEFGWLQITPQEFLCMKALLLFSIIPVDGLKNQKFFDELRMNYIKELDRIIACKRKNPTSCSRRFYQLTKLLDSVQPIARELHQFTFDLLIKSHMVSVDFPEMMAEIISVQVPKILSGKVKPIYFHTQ

[6] = molecular target: Gamma-aminobutyric acid receptor subunit alpha-1 (Rattus norvegicus, UniProt P62813)
Chain of Gamma-aminobutyric acid receptor subunit alpha-1 (P62813 whole entry): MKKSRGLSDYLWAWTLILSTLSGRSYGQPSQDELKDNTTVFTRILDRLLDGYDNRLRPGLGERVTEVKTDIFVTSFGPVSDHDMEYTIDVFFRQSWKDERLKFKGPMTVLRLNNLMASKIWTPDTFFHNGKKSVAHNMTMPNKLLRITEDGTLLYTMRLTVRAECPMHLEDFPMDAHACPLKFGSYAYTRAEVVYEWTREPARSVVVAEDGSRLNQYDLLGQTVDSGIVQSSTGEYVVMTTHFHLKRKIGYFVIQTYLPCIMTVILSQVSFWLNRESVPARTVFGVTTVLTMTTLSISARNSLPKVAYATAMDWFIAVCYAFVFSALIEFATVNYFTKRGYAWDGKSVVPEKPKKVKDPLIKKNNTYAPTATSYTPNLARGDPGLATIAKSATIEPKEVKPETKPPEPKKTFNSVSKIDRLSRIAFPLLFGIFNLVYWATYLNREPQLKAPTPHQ
Further: assay procedure not described here.

Compound	AC50 (Progesterone receptor) [µM]	AC50 [1] [µM]	AC50 [2] [µM]	AC50 [3] [µM]	AC50 [4] [µM]	AC50 [5] [µM]	AC50 (Androgen receptor) [µM]	AC50 [6] [µM]
CN(C)CCC=C1c2ccccc2CCc2ccccc21 [AMITRIPTYLINE]	> 30	> 30	1.81	–	–	–	–	–
NCC1(CC(=O)O)CCCCC1 [GABAPENTIN]	> 30	> 30	> 30	> 30	> 30	> 30	–	–
C[C@H](CCC(=O)O)[C@H]1CC[C@H]2[C@@H]3[C@H](O)C[C@@H]4C[C@H](O)CC[C@]4(C)[C@H]3CC[C@]12C [CHENODIOL]	–	–	> 50	> 30	> 30	> 30	–	–
Nc1c2c(nc3ccccc13)CCCC2O (stereo not given) [VELNACRINE]	–	–	–	> 30	> 30	> 30	–	–
CO[C@@H]1[C@@H](OC(N)=O)[C@@H](O)[C@H](Oc2ccc3c(O)c(NC(=O)c4ccc(O)c(CC=C(C)C)c4)c(=O)oc3c2C)OC1(C)C [NOVOBIOCIN]	–	–	> 50	> 30	> 30	> 30	–	–
COc1cc2c(cc1OC)C1CC(=O)C(CC(C)C)CN1CC2 (stereo not given) [TETRABENAZINE]	–	–	–	> 30	> 30	> 30	–	–
CCC[C@@]1(CCc2ccccc2)CC(O)=C([C@H](CC)c2cccc(NS(=O)(=O)c3ccc(C(F)(F)F)cn3)c2)C(=O)O1	–	–	> 50	> 30	6.9	> 30	–	–
CC(=O)Oc1ccccc1C(=O)O [ASPIRIN]	> 30	> 30	> 30	–	–	–	> 30	–
C[C@H](Nc1ncnc2[nH]cnc12)c1cc2cccc(Cl)c2c(=O)n1-c1ccccc1 [DUVELISIB]	–	–	> 50	> 30	> 30	> 30	> 30	> 30
CC(C)(CO)c1cc2cc(NC(=O)C3(c4ccc5c(c4)OC(F)(F)O5)CC3)c(F)cc2n1C[C@@H](O)CO [TEZACAFTOR]	–	–	42	> 30	> 30	–	–	–
O=C1[C@@H]2[C@H]3CC[C@H](C3)[C@@H]2C(=O)N1C[C@@H]1CCCC[C@H]1CN1CCN(c2nsc3ccccc23)CC1 [LURASIDONE]	–	> 30	41	> 30	> 30	> 30	> 30	–
c1cnc2cc3c(cc2n1)[C@@H]1CNC[C@H]3C1 [VARENICLINE]	–	–	–	> 30	> 30	> 30	–	–
CN1CC2c3ccccc3Oc3ccc(Cl)cc3C2C1 (stereo not given) [ASENAPINE]	–	–	2	> 30	> 30	> 30	–	–
Cn1cnc2c(F)c(Nc3ccc(Br)cc3F)c(C(=O)NOCCO)cc21 [BINIMETINIB]	–	–	> 30	> 30	> 30	> 30	–	–
C[C@@H](O)[C@H]1C(=O)N2C(C(=O)O)=C(SCCN=CN)C[C@H]12 [IMIPENEM ANHYDROUS]	–	–	–	> 300	> 300	> 300	–	–
